The results in this text go back to patent publication EP0372582A2, “6-Aminoalkyl carbapenems” (Bristol-Myers Squibb Company, priority 1988, dated 1990).

Like-named read-outs stand apart in the source and are kept apart here.

Series [1] in a line: Chemical stability in aqueous solution (half-life). Type of series: physicochemical. The method, then:
Chemical stability in aqueous solution at pH 7.4 and pH 2.0 is reported as half-life (t1/2). These values are determined by interpolation from a graph of concentration of test substance remaining in solution after storage under selected conditions for various periods of time.

Series [2] in a line: Blood concentration parameters after administration to mice. Type of series: in vivo. Particulars: for AUC / half-life / Cmax: mouse, mice; for half-life: blood half-life. The text has this: […] "Cmax" is the maximum concentration achieved, "t1/2" is the half-life or time for half of the absorbed material to disappear from the blood stream.
A further series concerns E. coli. The series is described as follows: Protective dose (PD50) in infected animals. Type of series: in vivo, mice. Details: unit not given here. An excerpt: The PD₅₀ values are protective doses, or the dose of test compound which secures survival of 50% of the animals of a test group, usually mice, during a designated period of time after being infected with an inoculum of infectious organism which will result in death of all inoculated untreated animals during that test period.

A further series relates to Staph. serum. The series is described as follows: M.I.C., tube dilution method in Nutrient Broth. Type of series: cell-based. The method, then:
The following procedures illustrate the application of the process of this invention to the preparation of a variety of compounds of Formula V. In many instances, data illustrating the biological activity of the substances as antibiotics are presented. […] It is determined by interpolation from a graph of concentration versus number of cells following exposure of the organism to the test compound under growth conditions. Another parameter such as optical density which is proportional to the cell count may be used. In some instances MIC₉₀ values are also given. The latter refers to 90% growth inhibition.

The mark [3] stands for this setting: 37°C, pH 2.0 citric acid buffer, by hplc, read-out: t1/2, pH 2.
[4] abbreviates: 37°C, pH 7.4 phosphate buffer, by uv, read-out: t1/2, pH 7.4 (converted).
Where [5] appears, read: phosphate buffer, pH 7.4, 37°C, pH 7.4 phosphate buffer, by uv, read-out: t1/2, pH 7.4 (converted).
Where [6] appears, read: citric acid buffer, pH 2, 37°C, pH 2.0 citric acid buffer, by hplc, read-out: t1/2, pH 2.
The mark [7] stands for this setting: blood, PO, 50 mg/kg, read-out: Cmax, PO/50.

Regarding `C[C@@H](N)C1C(=O)N2C(C(=O)O)=C(SCc3ccccc3)[C@H](C)[C@H]12` (stereo in doubt) [Procedure 12, (5S,6S) 6-(1′R-Aminoethyl)-3-benzylthio-4R-methyl-7-oxo-1-azabicyclo[3.2.0]hept-2-ene-2-carboxylic Acid], the half-life in series [1] (setting [3]) was 2.4 h; in series [1] (setting [4]), 4.1 h; in series [2] (in vivo, PO, 50 mg/kg), 0.217 h. In series [2] (in vivo, PO, 50 mg/kg), the AUC (in general, the area under the concentration-time curve, a measure of exposure) was 11000 ng·h/mL. For the same molecule, the Cmax in series [2] (in vivo, PO, 50 mg/kg, read-out: Cmax, PO/50) is 33000 ng/mL.
For the molecule `CSC1=C(C(=O)O)N2C(=O)[C@H]([C@H](C)O)[C@H]2[C@H]1C` [Procedure 4, (5S,6S) Potassium 6-(1′S-hydroxyethyl)-4R-methyl-3-methylthio-7-oxo-1-azabicyclo[3.2.0]hept-2-ene-2-carboxylate], the half-life in series [1] (setting [5]) was 160 h.
As for `CCSC1=C(C(=O)O)N2C(=O)[C@H]([C@@H](C)N)[C@H]2[C@H]1C` [Procedure 7, (5S,6R) 6-(1′R-Aminoethyl)-3-ethylthio-4R-methyl-7-oxo-1-azabicyclo[3.2.0]hept-2-ene-2-carboxylic Acid], the results for the half-life in series [1] (setting [6]) and in series [1] (setting [5]) were 2.8 h and 4.3 h, respectively.
Turning to `CSC1=C(C(=O)O)N2C(=O)[C@H]([C@@H](C)N)[C@H]2[C@H]1C` [Procedure 9, (5S,6R) 6-(1′R-Aminoethyl)-4R-methyl-3-methylthio-7-oxo-1-azabicyclo[3.2.0]hept-2-ene-2-carboxylic Acid], the half-life in series [1] (setting [6]) was 3.53 h; in series [1] (phosphate buffer, pH 7.4, 22°C, pH 7.4 phosphate buffer, read-out: half-life (converted)), 39 h; in series [1] (setting [5]) it was 6.8 h; in series [2] (PO, 50 mg/kg) it was 0.3 h. Besides, in series [2] (blood, PO, 50 mg/kg), the AUC came to 5000 ng·h/mL. In series [2] (setting [7]), the Cmax was determined as 9000 ng/mL. The figures for the “PD50, E. coli” value in the series with E. coli (IM) and in the series with E. coli (PO) were 25.00 and 12.50, respectively.
Take `C[C@@H](N)[C@H]1C(=O)N2C(C(=O)O)=C(SCc3cccnc3)[C@H](C)[C@H]12` [Procedure 21, (5S,6R)-6-(1′R-Aminoethyl)-4R-methyl-3-[(pyridin-3-yl)methyl-thio]-7-oxo-1-azabicyclo[3,2,0]hept-2-ene-2-carboxylic Acid]: the half-life is 2.4 h in series [1] (setting [6]); 3 h in series [1] (setting [5]); 0.2 h in series [2] (20 mg/kg, IM/20); 0.383 h in series [2] (PO, 50 mg/kg). The molecule also gave a U.R. in series [2] (listed after the PO/50 lines, abbreviation not defined) of 5. Further, the AUC was found to be 7000 ng·h/mL in series [2] (blood, 20 mg/kg, IM/20) and 21000 ng·h/mL in series [2] (blood, PO, 50 mg/kg). Moreover, the Cmax in series [2] (blood, 20 mg/kg, IM/20, read-out: Cmax, IM/20) is 18000 ng/mL; in series [2] (setting [7]), 25000 ng/mL. In addition, the “PD50, E. coli” value in the series with E. coli (PO) came to 8.10.
Regarding `C[C@@H](N)[C@H]1C(=O)N2C(C(=O)O)=C(SCCF)[C@H](C)[C@H]12` [Procedure 23], in the series on Staph. serum, the “M.I.C. Staph. serum” value is 16.000.
On to `C[C@@H](N)[C@H]1C(=O)N2C(C(=O)O)=C(SCCC#N)[C@H](C)[C@H]12` [Procedure 26, (5S,6R)-6-(1′R-Aminoethyl)-3-(2-cyanoethylthio)-4R-methyl-7-oxo-1-azabicyclo[3.2.0]hept-2-ene-2-carboxylic Acid], for which the half-life in series [1] (setting [6]) was 2.93 h; in series [1] (setting [5]), 2.8 h.
With `C[C@H](N)[C@H]1C(=O)N2C(C(=O)O)=C(SCCC#N)[C@H](C)[C@H]12` [Procedure 35, (5S,6R) 6-(1′S-Aminoethyl)-3-(2-cyanoethylthio)-4R-methyl-7-oxo-1-azabicyclo[3.2.0]hept-2-ene-2-carboxylic Acid], the half-life is 0.583 h in series [1] (setting [3]) and 1.5 h in series [1] (setting [4]).
As to `CSC1=C(C(=O)[O-])N2C(=O)[C@H]([C@@H](C)[N+](C)(C)C)[C@H]2[C@H]1C` [Procedure 36], in the series with Staph. serum, the “M.I.C. Staph. serum” value is reported as 63.000.
The same measure, in the same setting: the figure for `CSC1=C(C(=O)O)N2C(=O)[C@H]([C@@H](C)NC(=O)CNC(=O)[C@@H](N)CC(C)C)[C@H]2[C@H]1C` [Procedure 37] is 16.000.
Consider `CSC1=C(C(=O)O)N2C(=O)[C@H]([C@@H](C)NC(=O)CNC(=O)[C@H](C)N)[C@H]2[C@H]1C` [Procedure 38, (5S,6R) 6-(1′R-(L-alanylglycyl)aminoethyl)-4R-methyl-3-methylthio-7-oxo-1-azabicyclo[3.2.0]hept-2-ene--2-carboxylic Acid], for which the half-life in series [1] (setting [6]) was below 0.0833 h; in series [1] (setting [5]), 29 h. In addition, the Cmax in series [2] (setting [7]) amounted to 2000 ng/mL. In addition, the “PD50, E. coli” value with E. coli (IM) turned out to be 12.50; in the series with E. coli (PO) it was 25.00.
On to `CSC1=C(C(=O)O)N2C(=O)[C@H]([C@@H](C)NC(=O)[C@H](CC(C)C)NC(=O)[C@H](C)N)[C@H]2[C@H]1C` [Procedure 39, (5S,6R)-6-{1′R-(L-Alanyl-L-leucyl)aminoethyl}-4R-methyl-3-methylthio-7-oxo-1-azabicyclo[3.2.0]hept-2-ene-2-carboxylic Acid], for which the half-life in series [1] (setting [6]) is below 0.0833 h; in series [1] (setting [5]), 46 h. In addition, the Cmax in series [2] (setting [7]) is 2000 ng/mL. Further, the “PD50, E. coli” value in the series on E. coli (IM) and in the series on E. coli (PO) was 25.00 throughout.
For `CC[C@H]1C(SC)=C(C(=O)O)N2C(=O)[C@H]([C@H](C)N)[C@@H]12` [Procedure 49, (5S,6R) 6-(1′S-Aminoethyl)-4R-ethyl-3-methylthio-7-oxo-1-azabicyclo[3.2.0]hept-2-ene-2-carboxylic Acid], the “M.I.C. Staph. serum” value in the series on Staph. serum amounted to 63.000.
Still for that read-out and setting: the figure for `CSC1=C(C(=O)O)N2C(=O)[C@H]([C@H](C)N)[C@H]2[C@H]1C` [Procedure 57, (5S,6R) 6-(1S-Aminoethyl)-4R-methyl-3-methylthio-7-oxo-1-1-azabicyclo[3.2.0]hept-2-ene-2-carboxylate] is 16.000; for `C[C@H](N)[C@H]1C(=O)N2C(C(=O)O)=C(SCc3cccnc3)[C@H](C)[C@H]12` [Procedure 58] it is 4.000.
Still for that read-out and setting: the figure for `CSC1=C(C(=O)[O-])N2C(=O)[C@H]([C@H](C)[N+](C)(C)C)[C@H]2[C@H]1C` [Procedure 59, (5S,6R) 6-(1′S-N-Trimethylammonium-ethyl)-4R-methyl-3-methylthio-7-oxo-1-azabicyclo[3.2.0]hept-2-ene-2-carboxylate] is 8.000; for `CCSC1=C(C(=O)O)N2C(=O)[C@H]([C@H](C)N)[C@H]2[C@H]1C` [Procedure 60, (5S,6R) 6-(1′S-aminoethyl)-3-ethylthio-4R-methyl-7-oxo-1-azabicyclo[3.2.0]hept-2-ene-2-carboxylic acid] it is 8.000; for `CSC1=C(C(=O)O)N2C(=O)[C@H]([C@H](C)NC(=O)CNC(=O)[C@@H](N)CC(C)C)[C@H]2[C@H]1C` [Procedure 61, (5S,6R) 6-(1′S-(L-Leucylglycyl)aminoethyl)-4R-methyl-3-methylthio-7-oxo-1-azabicyclo[3.2.0]hept-2-ene-2-carboxylic Acid] it is 63.000.
